From patent US11945801B2, “Bicyclic aza compounds as muscarinic M1 and/or M4 receptor agonists” (Heptares Therapeutics Limited, priority 2018, dated 2024)
Where two headings read alike, the source gives them in different places.

Legend:
Assay type in all cases: cell-based
[1] = target: T1, human muscarinic M1 receptor (Homo sapiens, UniProt P11229); assay: Alphascreen Surefire phospho-ERK1/2 functional assay, M1; conditions: for EC50: agonist 5 min, 37° C.; for Emax: CHO
T1 sequence (P11229 1-460): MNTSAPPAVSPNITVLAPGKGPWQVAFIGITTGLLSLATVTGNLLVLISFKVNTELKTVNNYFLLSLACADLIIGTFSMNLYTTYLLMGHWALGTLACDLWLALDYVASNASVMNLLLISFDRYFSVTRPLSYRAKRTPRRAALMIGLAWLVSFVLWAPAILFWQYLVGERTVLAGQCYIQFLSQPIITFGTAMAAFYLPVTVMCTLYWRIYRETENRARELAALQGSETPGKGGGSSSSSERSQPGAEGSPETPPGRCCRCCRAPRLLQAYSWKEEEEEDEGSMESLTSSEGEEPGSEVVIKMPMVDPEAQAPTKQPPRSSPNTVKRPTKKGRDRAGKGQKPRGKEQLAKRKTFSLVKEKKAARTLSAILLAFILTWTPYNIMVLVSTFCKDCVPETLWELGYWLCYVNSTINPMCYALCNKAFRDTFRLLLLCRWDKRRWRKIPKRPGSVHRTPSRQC
Protocol: (§1) ERK1/2 phosphorylation is a downstream consequence of both Gq/11 and Gi/o protein coupled receptor activation, making it highly suitable for the assessment of M1, M3 (Gq/11 coupled) and M2, M4 receptors (Gi/o coupled), rather than using different assay formats for different receptor subtypes. CHO cells stably expressing the human muscarinic M1, M2, M3 or M4 receptor were plated (25K/well) onto 96-well tissue culture plates in MEM-alpha+10% dialysed FBS. Once adhered, cells were serum-starved overnight. Agonist stimulation was performed by the addition of 5 μL agonist to the cells for 5 min (37° C.). Media was removed and 50 μL of lysis buffer added. After […], a 4 μL sample was transferred to 384-well plate and 7 μL of detection mixture added.
(§2) Isomer assignment (Isomer 1, Isomer 2, etc.) is based on the retention time of the compound using the separation technique that was performed in the final purification step. By implication, this could be reversed phase HPLC, chiral HPLC or chiral SFC retention time, and this will vary from compound to compound.

[2] = target: T2, human muscarinic M2 receptor (Homo sapiens, UniProt P08172); assay: Alphascreen Surefire phospho-ERK1/2 functional assay, M2; conditions: for Emax: CHO
T2 sequence (P08172 1-466): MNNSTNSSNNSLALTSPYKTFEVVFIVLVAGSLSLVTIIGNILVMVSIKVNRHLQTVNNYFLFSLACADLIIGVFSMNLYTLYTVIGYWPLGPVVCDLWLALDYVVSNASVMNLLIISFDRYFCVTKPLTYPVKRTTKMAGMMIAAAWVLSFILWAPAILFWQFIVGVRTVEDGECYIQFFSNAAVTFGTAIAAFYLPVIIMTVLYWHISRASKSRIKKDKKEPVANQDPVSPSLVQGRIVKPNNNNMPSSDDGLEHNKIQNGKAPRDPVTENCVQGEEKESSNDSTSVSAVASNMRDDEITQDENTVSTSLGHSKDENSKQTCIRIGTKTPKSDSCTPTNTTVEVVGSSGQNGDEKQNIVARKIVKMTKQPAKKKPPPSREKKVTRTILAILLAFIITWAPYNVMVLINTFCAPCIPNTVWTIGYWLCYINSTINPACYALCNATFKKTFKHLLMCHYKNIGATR
Protocol: as §1, §2

[3] = target: T3, human muscarinic M3 receptor (Homo sapiens, UniProt P20309); assay: Alphascreen Surefire phospho-ERK1/2 functional assay, M3; conditions: for Emax: CHO
T3 construct: expressed in transfected cells
Protocol: as §1, §2

[4] = target: T4, human muscarinic M4 receptor (Homo sapiens, UniProt P08173); assay: Alphascreen Surefire phospho-ERK1/2 functional assay, M4; conditions: for EC50 / % Emax cf. ACh, M4: CHO cells stably expressing human M4; for EC50: agonist 5 min, 37° C., read-out: pEC50 M4 (converted); for Emax: CHO
T4 construct: expressed in transfected cells
T4 sequence (P08173 1-479): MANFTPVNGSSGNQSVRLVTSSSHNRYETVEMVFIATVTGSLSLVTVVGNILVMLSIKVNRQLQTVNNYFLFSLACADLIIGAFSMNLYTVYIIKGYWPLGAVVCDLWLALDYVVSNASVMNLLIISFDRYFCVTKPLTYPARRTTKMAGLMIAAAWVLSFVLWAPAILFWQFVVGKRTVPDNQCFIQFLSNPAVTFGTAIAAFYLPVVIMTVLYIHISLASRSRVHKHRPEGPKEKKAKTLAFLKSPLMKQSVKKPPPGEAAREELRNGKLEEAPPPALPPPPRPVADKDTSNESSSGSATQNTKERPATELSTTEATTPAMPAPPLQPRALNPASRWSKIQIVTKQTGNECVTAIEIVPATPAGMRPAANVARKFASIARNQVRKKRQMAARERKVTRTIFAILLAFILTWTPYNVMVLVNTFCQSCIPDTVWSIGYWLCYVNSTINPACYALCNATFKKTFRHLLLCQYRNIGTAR
Protocol: as §1, §2

[5] = CHO cells stably expressing human M1, read-out: pEC50 M1 (converted)
[6] = CHO cells stably expressing human M2, agonist 5 min, 37° C., read-out: pEC50 M2 (converted)
[7] = read-out: % Emax cf. ACh, M2, CHO cells stably expressing human M2, Emax relative to ACh
[8] = CHO cells stably expressing human M3, agonist 5 min, 37° C., read-out: pEC50 M3 (converted)
[9] = read-out: % Emax cf. ACh, M3, CHO cells stably expressing human M3, Emax relative to ACh
[10] = read-out: % Emax cf. ACh, M4, CHO cells stably expressing human M4, Emax relative to ACh
[11] = read-out: % Emax cf. ACh, M1, CHO cells stably expressing human M1, Emax relative to ACh

T3 sequence (P20309 whole entry): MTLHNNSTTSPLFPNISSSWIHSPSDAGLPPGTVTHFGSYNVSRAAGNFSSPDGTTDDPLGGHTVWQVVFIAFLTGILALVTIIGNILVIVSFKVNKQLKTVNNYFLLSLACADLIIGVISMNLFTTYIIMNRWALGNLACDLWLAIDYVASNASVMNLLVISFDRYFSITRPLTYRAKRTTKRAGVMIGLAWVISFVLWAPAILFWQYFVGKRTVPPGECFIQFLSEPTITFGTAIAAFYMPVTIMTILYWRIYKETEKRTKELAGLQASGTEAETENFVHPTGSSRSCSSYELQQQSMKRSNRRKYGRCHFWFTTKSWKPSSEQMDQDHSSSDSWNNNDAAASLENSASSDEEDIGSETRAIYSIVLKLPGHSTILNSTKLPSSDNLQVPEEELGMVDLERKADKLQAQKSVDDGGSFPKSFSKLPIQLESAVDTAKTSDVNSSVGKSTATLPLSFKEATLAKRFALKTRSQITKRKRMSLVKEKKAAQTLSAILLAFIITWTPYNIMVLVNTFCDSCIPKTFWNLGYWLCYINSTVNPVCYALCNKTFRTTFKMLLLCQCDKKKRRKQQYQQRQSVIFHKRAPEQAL

Row | Structure (SMILES) | EC50 [1, 5] | EC50 [2, 6] | Emax [2, 7] | EC50 [3, 8] | Emax [3, 9] | EC50 [4] | Emax [4, 10] | Emax [1, 11] | other results
1 | CCOC(=O)N1CC2(CCC(N3CC(OC(=O)N4CCOCC4)C3)C2)C1 (single isomer, unassigned) [Example 4-8 Isomer 1, 1-(2-(Ethoxycarbonyl)-2-azaspiro[3.4]octan-6-yl)azetidin-3-yl morpholine-4-carboxylate] | 57.5 nM | > 20000 nM | 2% | > 20000 nM | 4% | > 20000 nM | 14% | 72% | 
2 | CCOC(=O)N1CC2(CCC(N3CC(OC(=O)N4CCCC4)C3)C2)C1 (single isomer, unassigned) [Example 4-7 Isomer 1, Ethyl 6-(3-((pyrrolidine-1-carbonyl)oxy)azetidin-1-yl)-2-azaspiro[3.4]octane-2-carboxylate] | 75.9 nM | > 20000 nM | 7% | > 20000 nM | 8% | 49 nM | 29% | 51% | 
3 | CCOC(=O)N1CC2(CCC(N3CC(OC(=O)N(CC)CC)C3)C2)C1 (single isomer, unassigned) [Example 4-5 Isomer 1, Ethyl 6-(3-((diethylcarbamoyl)oxy)azetidin-1-yl)-2-azaspiro[3.4]octane-2-carboxylate] | 15.8 nM | > 20000 nM | 6% | > 20000 nM | 54% | 33.1 nM |  |  | % Emax cf. ACh, M1 ([1]; CHO cells stably expressing human M1, Emax relative to ACh, listed as 4-5 Isomer 1): 66%; % Emax cf. ACh, M4 ([4]; Emax relative to ACh, listed as 4-5 Isomer 1): 31%
4 | CCOC(=O)N1CC2CCC1CC2N1CC(CC(=O)N2CCCCC2)C1 (single isomer, unassigned) [Example 2-3 Isomer 1, Ethyl-5-(3-(2-oxo-2-(piperidin-1-yl)ethyl)azetidin-1-yl)-2-azabicyclo[2.2.2]octane-2-carboxylate] | 204 nM | > 20000 nM | 10% | > 20000 nM | 9% | 6460 nM | 46% | 88% | 
5 | CCOC(=O)N1C2CCC1CC(N1CC(OC(=O)N3CCCCCC3)C1)C2 (mixture of isomers) [Example 5-1 Isomer mixture, Ethyl 3-(3-((azepane-1-carbonyl)oxy)azetidin-1-yl)-8-azabicyclo[3.2.1]octane-8-carboxylate] |  |  |  |  |  | 427 nM |  |  | Emax ([1]; read-out: % Emax cf. ACh, M1): 83%; EC50 ([1]; pEC50 M1, CHO cells stably expressing human M1): 89.1 nM; EC50 [2]: > 20000 nM; Emax ([2]; read-out: % Emax cf. ACh, M2): 18%; EC50 [3]: > 20000 nM; Emax ([3]; read-out: % Emax cf. ACh, M3): 45%; Emax ([4]; read-out: % Emax cf. ACh, M4): 39%
6 | CCOC(=O)N1C2CCC1CC(N1CC(CC(=O)N3CCCCC3)C1)C2 (mixture of isomers) [Example 1-4 Isomer mixture, Ethyl-3-(3-(2-oxo-2-(piperidin-1-yl)ethyl)azetidin-1-yl)-8-azabicyclo[3.2.1]octane-8-carboxylate] | 309 nM | > 20000 nM |  | > 20000 nM |  | > 20000 nM |  |  | Emax ([1]; read-out: % Emax cf. ACh, M1): 84%; Emax ([2]; read-out: % Emax cf. ACh, M2): 21%; Emax ([3]; read-out: % Emax cf. ACh, M3): 6%; Emax ([4]; read-out: % Emax cf. ACh, M4): 17%
7 | CCOC(=O)N1CCC2(CC(N3CC(OC(=O)N(CC)CC)C3)C2)C1 (single isomer, unassigned) [Example 4-2 Isomer 2, Ethyl 2-(3-((diethylcarbamoyl)oxy)azetidin-1-yl)-6-azaspiro[3.4]octane-6-carboxylate] | 158 nM | > 20000 nM | 14% | > 20000 nM | 17% | 282 nM | 89% | 105% | 

Second part, led by results:

Row | EC50 [1, 5] | EC50 [2, 6] | Emax [2, 7] | EC50 [3, 8] | Emax [3, 9] | EC50 [4] | Emax [4, 10] | Emax [1, 11] | Structure (SMILES) | other results
8 | 19.1 nM | > 20000 nM | 8% | > 20000 nM | 12% | 257 nM | 36% |  | CCOC(=O)N1CC2CCC1CC2N1CC(CC(=O)N(CC)C(C)C)C1 (single isomer, unassigned) [Example 2-2 Isomer 1, Ethyl-5-(3-(2-(ethyl(isopropyl)amino)-2-oxoethyl)azetidin-1-yl)-2-azabicyclo[2.2.2]octane-2-carboxylate] | % Emax cf. ACh, M1 ([1]; CHO cells stably expressing human M1, Emax relative to ACh, listed as 2-2 Isomer 1): 95%
9 | 110 nM | > 20000 nM | 53% | > 20000 nM | 35% | > 20000 nM | 23% | 64% | CCOC(=O)N1CC2CCC1CC2N1CC(CC(=O)N2CCC23CCC3)C1 (single isomer, unassigned) [Example 2-5 Isomer 1, Ethyl-5-(3-(2-oxo-2-(1-azaspiro[3.3]heptan-1-yl)ethyl)azetidin-1-yl)-2-azabicyclo[2.2.2]octane-2-carboxylate] | 
10 | 58.9 nM | > 20000 nM | 5% | > 20000 nM | 0% | 22.9 nM | 37% | 67% | CCOC(=O)N1CC2(CCC(N3CC(OC(=O)N(C)CC)C3)C2)C1 (single isomer, unassigned) [Example 4-4 Isomer 1, Ethyl 6-(3-((ethyl(methyl)carbamoyl)oxy)azetidin-1-yl)-2-azaspiro[3.4]octane-2-carboxylate] | 
11 | 214 nM | > 20000 nM | 9% | > 20000 nM | 11% | 339 nM |  |  | CCN(CC)C(=O)OC1CN(C2CCC3(C2)CN(C(=O)OC)C3)C1 (single isomer, unassigned) [Example 4-6 Isomer 2, Methyl 6-(3-((diethylcarbamoyl)oxy)azetidin-1-yl)-2-azaspiro[3.4]octane-2-carboxylate] | % Emax cf. ACh, M1 ([1]; CHO cells stably expressing human M1, Emax relative to ACh): 93%; % Emax cf. ACh, M4 ([4]; Emax relative to ACh): 32%
12 | 57.5 nM | > 20000 nM | 3% | > 20000 nM | 2% | > 20000 nM |  |  | CCOC(=O)N1CC2(CCC(N3CC(OC(=O)N4CCCOCC4)C3)C2)C1 (single isomer, unassigned) [Example 4-9 Isomer 1, 1-(2-(Ethoxycarbonyl)-2-azaspiro[3.4]octan-6-yl)azetidin-3-yl 1,4-oxazepane-4-carboxylate] | % Emax cf. ACh, M1 ([1]; CHO cells stably expressing human M1, Emax relative to ACh, listed as 4-9 Isomer 1): 37%; % Emax cf. ACh, M4 ([4]; Emax relative to ACh, listed as 4-9 Isomer 1): 7%
